Key:
Assay in all cases: relative viability (nuclei count vs DMSO), 5 days (fraction); higher = more cells survive
AZD1208 + Foretinib = compound: N[C@@H]1CCCN(c2c(/C=C3\SC(=O)NC3=O)cccc2-c2ccccc2)C1 [AZD1208] + COc1cc2c(Oc3ccc(NC(=O)C4(C(=O)Nc5ccc(F)cc5)CC4)cc3F)ccnc2cc1OCCCN1CCOCC1 [Foretinib] (partner 0.25 µM)
How it was run: (§1)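 A single step with final 0.05% Triton X-100, 1% formaldehyde and 1 ug/ml Hoechst fixed the cells and stained nuclei 5 days after treatment. Lung cancer cell lines in 1536-well plates had been treated by pin tool the day after seeding with one drug alone or a fixed anchor-drug dose plus five library-drug doses (not always all listed) in √10 steps, and nuclei were counted on 4× images. Relative viability is the ratio of nuclei in treated wells to nuclei in vehicle wells, taken as the median of duplicate plates.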

AZD1208 + Crizotinib = compound: N[C@@H]1CCCN(c2c(/C=C3\SC(=O)NC3=O)cccc2-c2ccccc2)C1 [AZD1208] + C[C@@H](Oc1cc(-c2cnn(C3CCNCC3)c2)cnc1N)c1c(Cl)ccc(F)c1Cl [Crizotinib] (partner 1 µM)
How it was run: as §1

XMD14-99 + AZD7762 = compound: CN1CCN(CC1)C2=CC(=C(C=C2)NC3=NC(=C(S3)C(=O)C4=C(C=CC=C4Cl)Cl)N)OC [XMD14-99] + NC(=O)Nc1cc(-c2cccc(F)c2)sc1C(=O)N[C@H]1CCCNC1 [AZD7762] (partner 0.2 µM)
How it was run: as §1

XMD14-99 + Vorinostat = compound: CN1CCN(CC1)C2=CC(=C(C=C2)NC3=NC(=C(S3)C(=O)C4=C(C=CC=C4Cl)Cl)N)OC [XMD14-99] + O=C(CCCCCCC(=O)Nc1ccccc1)NO [Vorinostat] (partner 1 µM)
How it was run: as §1

| Cell Line | relative viability (AZD1208 + Foretinib; first compound 0.08 µM) | relative viability (AZD1208 + Foretinib; first compound 0.253 µM) | relative viability (AZD1208 + Foretinib; first compound 0.8 µM) | relative viability (AZD1208 + Foretinib; first compound 2.53 µM) | relative viability (AZD1208 + Foretinib; first compound 8 µM) | relative viability (AZD1208 + Crizotinib; first compound 0.08 µM) | relative viability (AZD1208 + Crizotinib; first compound 0.253 µM) | relative viability (AZD1208 + Crizotinib; first compound 0.8 µM) | relative viability (AZD1208 + Crizotinib; first compound 2.53 µM) | relative viability (AZD1208 + Crizotinib; first compound 8 µM) | relative viability (XMD14-99 + AZD7762; first compound 0.08 µM) | relative viability (XMD14-99 + AZD7762; first compound 0.8 µM) | relative viability (XMD14-99 + AZD7762; first compound 2.53 µM) | relative viability (XMD14-99 + AZD7762; first compound 8 µM) | relative viability (XMD14-99 + Vorinostat; first compound 0.08 µM) | relative viability (XMD14-99 + Vorinostat; first compound 0.8 µM) | relative viability (XMD14-99 + Vorinostat; first compound 2.53 µM) | relative viability (XMD14-99 + Vorinostat; first compound 8 µM) |
| --- | --- | --- | --- | --- | --- | --- | --- | --- | --- | --- | --- | --- | --- | --- | --- | --- | --- | --- |
| NCI-H460 | 0.992 | 1.09 | 0.978 | 0.987 | 1.11 | 0.912 | 1.17 | 0.854 | 0.709 | 0.871 | 0.619 | 0.601 | 0.634 | 0.453 | 0.735 | 0.693 | 0.625 | 0.49 |
| NCI-H596 | 0.882 | 0.912 | 0.806 | 0.865 | 0.673 | 0.853 | 1.04 | 0.837 | 0.955 | 0.711 | 1.16 | 1.01 | 1.29 | 1.15 | 0.635 | 0.645 | 0.794 | 0.536 |
| NCI-H647 | 1.07 | 1.25 | 1.04 | 1.16 | 0.897 | 0.953 | 1.09 | 0.894 | 0.906 | 0.757 | 0.506 | 0.472 | 0.433 | 0.335 | 0.522 | 0.581 | 0.648 | 0.582 |
| NCI-H650 | 1.03 | 1.03 | 0.977 | 0.9 | 0.829 | 0.704 | 0.723 | 0.577 | 0.576 | 0.643 | 1.05 | 1.06 | 1.16 | 0.851 | 0.348 | 0.455 | 0.439 | 0.411 |
| NCI-H727 | 0.843 | 0.938 | 0.737 | 0.533 | 0.781 | 0.795 | 0.863 | 0.819 | 0.789 | 0.703 | 0.582 | 0.598 | 0.506 | 0.578 | 1.25 | 0.989 | 1.06 | 0.994 |
| NCI-H838 | 1.03 | 1 | 0.939 | 1.02 | 0.946 | 0.967 | 0.806 | 0.892 | 0.843 | 0.758 | 0.91 | 0.952 | 0.975 | 0.897 | 0.685 | 0.626 | 0.577 | 0.414 |
| NCI-H1355 | 0.973 | 1 | 0.878 | 0.84 | 0.784 | 0.974 | 1.09 | 0.997 | 1.06 | 0.916 | 0.85 | 0.625 | 0.652 | 0.572 | 0.636 | 0.604 | 0.586 | 0.556 |
| NCI-H1437 | 1.31 | 1.17 | 1.36 | 1.42 | 1.42 | 0.979 | 0.961 | 1.03 | 0.998 | 1.04 | 1.18 | 1.05 | 0.991 | 0.719 | 0.797 | 0.66 | 0.641 | 0.382 |
| NCI-H1651 | 0.637 | 0.827 | 0.665 | 0.768 | 0.588 | 0.899 | 0.918 | 0.83 | 0.835 | 0.81 | 0.429 | 0.466 | 0.444 | 0.46 | 0.614 | 0.487 | 0.534 | 0.448 |
| NCI-H1666 | 0.906 | 1 | 0.953 | 0.954 | 0.975 | 1.06 | 0.934 | 0.837 | 0.905 | 1.03 | 0.858 | 0.801 | 0.731 | 0.736 | 1.04 | 0.967 | 0.947 | 0.895 |
| NCI-H1734 | 0.773 | 0.814 | 0.738 | 0.755 | 0.56 | 0.683 | 0.649 | 0.504 | 0.528 | 0.464 | 0.487 | 0.513 | 0.459 | 0.51 | 0.803 | 0.785 | 0.799 | 0.581 |
| NCI-H1755 | 0.908 | 0.892 | 0.851 | 0.861 | 0.787 | 0.863 | 0.939 | 0.8 | 0.777 | 0.728 | 0.44 | 0.366 | 0.467 | 0.357 | 0.661 | 0.742 | 0.686 | 0.608 |
| NCI-H1915 | 1.12 | 1.09 | 1.11 | 1.11 | 1.03 | 0.847 | 0.982 | 0.865 | 0.885 | 0.845 | 0.668 | 0.676 | 0.701 | 0.629 | 0.519 | 0.491 | 0.486 | 0.377 |

From the supplement of paper PMC10307832
